The source of these data is patent US20050080024A1, “Nitric oxide donating derivatives for the treatment of cardiovascular disorders” (priority 2002, published 2005).

SMILES strings stand for the structures. Read-outs that look alike come from different tables or passages of the source.

For one test, the system named is C. albicans. The test can be described thus: Murine model for systemic candidiasis. In kind it is in vivo. The conditions noted are these: treated mice; fluconazole orally. Here is the method: In addition, fungicidal compounds of the invention are efficacious in a murine model for systemic candidiasis. Fungicidal compounds of the invention prolong mean and median survival times of treated mice. The compounds are administered IP producing a similar survival pattern as that produced by the positive control compound fluconazole administered orally. […] Fungicidal compounds of the invention are also efficacious when administered orally to mice with an established systemic Candida infection. The compound given orally is similar in efficacy to fluconazole as measured by survival time, percent cures and kidney burden. Fungicidal compounds of the invention are also effective against systemic candidiasis caused by a strain of C. albicans resistant to fluconazole.

The subject of a further test is ApoA-1 gene. The settings on record: putatively mediated through Site S (PCT/CA03/01220); cited from earlier work.
The conditions of test [1]: human study; cited from earlier work.
The conditions of test [2]: rabbits; cited from earlier work.

As for `OC(Cn1cncn1)(Cn1cncn1)c1ccc(F)cc1F` [fluconazole], the “recoverable colonies from the kidneys” value with C. albicans is reported as “reduce recoverable colonies from the kidneys”.

Take `Oc1ccc(/C=C/c2cc(O)cc(O)c2)cc1` [resveratrol, 5-[(E)-2-(4-hydroxy-phenyl)-vinyl]-benzene-1,3-diol]: in the test with ApoA-1 gene, the “transcription of apolipoprotein Al” value is reported as “increase the transcription of apolipoprotein Al”.

Consider `O=C1CC(c2ccc(O)cc2)Oc2cc(O)cc(O)c21` (stereo not shown) [naringenin, 5,7-dihydroxy-2-(4-hydroxy-phenyl)-chroman-4-one], for which, in test [1], the HDL entry is “increase HDL”, the LDL result is “no effect” and the triglycerides entry is “no effect”. Also, in test [2], the HDL result is reported as “no effect upon HDL” and the LDL entry is “decrease LDL”.
